Results published in ChEMBL document CHEMBL1121623, “Thrombin inhibitors. 3. Carboxyl-containing amide derivatives of N alpha-substituted L-arginine” (J Med Chem, 1980).

Legend:
Prothrombin [1] = target: T1, Prothrombin (Bos taurus, UniProt P00735); experiment: (§1) Concentration at which the clotting time was prolonged by twice that of the control by inhibiting thrombin; assay type: functional; settings: read-out: I50
Prothrombin [2] = target: T1, Prothrombin; experiment: as §1; settings: read-out: I50

SMILES	IC50 (Prothrombin [1])	IC50 (Prothrombin [2])
CCCC1CCN(C(=O)C(CCCN=C(N)N)NS(=O)(=O)c2ccc3cc(OC)c(OC)cc3c2)C(C(=O)O)C1 (stereo unspecified)	500 nM	
CCCCN(CC(=O)O)C(=O)C(CCCN=C(N)N)NS(=O)(=O)c1cccc2c(N(C)C)cccc12 (stereo unspecified)		4000 nM
COc1cc2ccc(S(=O)(=O)NC(CCCN=C(N)N)C(=O)N3C(C(=O)O)CCCC3C(=O)O)cc2cc1OC (stereo unspecified)		> 100000 nM
CCCCN(CC(=O)O)C(=O)C(CCCN=C(N)N)NS(=O)(=O)c1ccc2ccc(OC)cc2c1 (stereo unspecified)		500 nM
COCCN(CC(=O)O)C(=O)C(CCCN=C(N)N)NS(=O)(=O)c1cccc2ccccc12 (stereo unspecified)		30000 nM
COc1cc2ccc(S(=O)(=O)NC(CCCN=C(N)N)C(=O)N3Cc4ccccc4C3C(=O)O)cc2cc1OC (stereo unspecified)	1500 nM	
CCOc1cc2ccc(S(=O)(=O)NC(CCCN=C(N)N)C(=O)N3CCC(C)CC3C(=O)O)cc2cc1OCC (stereo unspecified)		4000 nM
CCOc1cc2ccc(S(=O)(=O)NC(CCCN=C(N)N)C(=O)N(CCOC)CC(=O)O)cc2cc1OCC (stereo unspecified)		15000 nM
CCCCN(CC(=O)O)C(=O)C(CCCN=C(N)N)NS(=O)(=O)c1ccc2ccc(C)cc2c1 (stereo unspecified)		300 nM
CC(C)C1CCN(C(=O)C(CCCN=C(N)N)NS(=O)(=O)c2ccc3cc(Cl)ccc3c2)C(C(=O)O)C1 (stereo unspecified)		500 nM
COCCN(CC(=O)O)C(=O)C(CCCN=C(N)N)NS(=O)(=O)c1ccc2cc(OC)c(OC)cc2c1 (stereo unspecified)		300 nM
CC1CCN(C(=O)C(CCCN=C(N)N)NS(=O)(=O)c2cccc3c2oc2ccccc23)C(C(=O)O)C1 (stereo unspecified)	150 nM	
Cc1ccc2cc(S(=O)(=O)NC(CCCN=C(N)N)C(=O)N3CCC(C(C)C)CC3C(=O)O)ccc2c1 (stereo unspecified)		350 nM
COc1cc2ccc(S(=O)(=O)NC(CCCN=C(N)N)C(=O)N(CC(=O)O)CC3CCCO3)cc2cc1OC (stereo unspecified)		200 nM
COc1cc2ccc(S(=O)(=O)NC(CCCN=C(N)N)C(=O)N(CC(=O)O)Cc3ccccc3)cc2cc1OC (stereo unspecified)		2500 nM
CCCCCCN(CC(=O)O)C(=O)C(CCCN=C(N)N)NS(=O)(=O)c1ccc2cc(OC)c(OC)cc2c1 (stereo unspecified)		150 nM
CCCCN(CC(=O)O)C(=O)C(CCCN=C(N)N)NS(=O)(=O)c1ccc2c(c1)CCCC2 (stereo unspecified)	60000 nM	
COc1ccc2cc(S(=O)(=O)NC(CCCN=C(N)N)C(=O)N3CCCCC3C(=O)O)ccc2c1 (stereo unspecified)		100000 nM
COc1cc2ccc(S(=O)(=O)NC(CCCN=C(N)N)C(=O)N3CCCCC3C(=O)O)cc2cc1OC (stereo unspecified)		4500 nM
CCCCN(CC(=O)O)C(=O)C(CCCN=C(N)N)NS(=O)(=O)c1cc(OC)c2cc(OC)ccc2c1 (stereo unspecified)		2000 nM
COc1ccc2ccc(S(=O)(=O)NC(CCCN=C(N)N)C(=O)N3CCC(C(C)C)CC3C(=O)O)cc2c1 (stereo unspecified)		150 nM

SMILES	IC50 (Prothrombin [1])	IC50 (Prothrombin [2])
COc1ccc2ccc(S(=O)(=O)NC(CCCN=C(N)N)C(=O)N3CCC(C)CC3C(=O)O)cc2c1 (stereo unspecified)		150 nM
Cc1cc2ccc(S(=O)(=O)NC(CCCN=C(N)N)C(=O)N(CC(=O)O)CC3CCCO3)cc2cc1C (stereo unspecified)		3000 nM
COc1ccc2ccc(S(=O)(=O)NC(CCCN=C(N)N)C(=O)N3CCCCC3C(=O)O)cc2c1 (stereo unspecified)		5000 nM
COCCN(CC(=O)O)C(=O)C(CCCN=C(N)N)NS(=O)(=O)c1ccc2oc3ccccc3c2c1 (stereo unspecified)	350 nM	
COCCN(CC(=O)O)C(=O)C(CCCN=C(N)N)NS(=O)(=O)c1cccc2c(OC)cccc12 (stereo unspecified)		2500 nM
CC1CCN(C(=O)C(CCCN=C(N)N)NS(=O)(=O)c2cccc3ccccc23)C(C(=O)O)C1 (stereo unspecified)		1000 nM
COc1cc2ccc(S(=O)(=O)NC(CCCN=C(N)N)C(=O)N(CC(=O)O)C3CCCCCC3)cc2cc1OC (stereo unspecified)		15000 nM
COCCN(CC(=O)O)C(=O)C(CCCN=C(N)N)NS(=O)(=O)c1cccc2cc(C)c(C)cc12 (stereo unspecified)		10000 nM
COc1cc2ccc(S(=O)(=O)NC(CCCN=C(N)N)C(=O)N(CCc3ccccc3)CC(=O)O)cc2cc1OC (stereo unspecified)		3000 nM
COc1cc2ccc(S(=O)(=O)NC(CCCN=C(N)N)C(=O)N3CCC(C(=O)O)CC3)cc2cc1OC (stereo unspecified)		150000 nM
COc1ccc2ccc(S(=O)(=O)NC(CCCN=C(N)N)C(=O)N3CCCCCC3C(=O)O)cc2c1 (stereo unspecified)	2500 nM	
COCCN(CCCC(=O)O)C(=O)C(CCCN=C(N)N)NS(=O)(=O)c1ccc2cc(OC)c(OC)cc2c1 (stereo unspecified)		40000 nM
COCCN(CC(=O)O)C(=O)C(CCCN=C(N)N)NS(=O)(=O)c1ccc2c(c1)OCCO2 (stereo unspecified)	32000 nM	
CC(C)C1CCN(C(=O)C(CCCN=C(N)N)NS(=O)(=O)c2ccc3ccccc3c2)C(C(=O)O)C1 (stereo unspecified)		50000 nM
COc1cc2ccc(S(=O)(=O)NC(CCCN=C(N)N)C(=O)N3CCC(C)CC3C(=O)O)cc2cc1OC (stereo unspecified)		400 nM
CC1CCN(C(=O)C(CCCN=C(N)N)NS(=O)(=O)c2ccc3oc4ccccc4c3c2)C(C(=O)O)C1 (stereo unspecified)	100 nM	
COc1ccc2ccc(S(=O)(=O)NC(CCCN=C(N)N)C(=O)N(CC(=O)O)CC3CCCO3)cc2c1 (stereo unspecified)		150 nM
COCCN(CCC(=O)O)C(=O)C(CCCN=C(N)N)NS(=O)(=O)c1ccc2cc(OC)c(OC)cc2c1 (stereo unspecified)		3700 nM
Cc1ccc2ccc(S(=O)(=O)NC(CCCN=C(N)N)C(=O)N3CCC(C(C)C)CC3C(=O)O)cc2c1 (stereo unspecified)		100 nM
COCCN(CC(=O)O)C(=O)C(CCCN=C(N)N)NS(=O)(=O)c1ccc2ccc(C)cc2c1 (stereo unspecified)		350 nM
COCCN(CC(=O)O)C(=O)C(CCCN=C(N)N)NS(=O)(=O)c1ccc2c(c1)Sc1ccccc1O2 (stereo unspecified)	350 nM	

SMILES	IC50 (Prothrombin [1])	IC50 (Prothrombin [2])
CCCCN(CC(=O)O)C(=O)C(CCCN=C(N)N)NS(=O)(=O)c1cccc2c(OC)cccc12 (stereo unspecified)		4000 nM
COCCN(CC(=O)O)C(=O)C(CCCN=C(N)N)NS(=O)(=O)c1cc(OC)c2cc(OC)ccc2c1 (stereo unspecified)		4000 nM
COc1ccc2cc(S(=O)(=O)NC(CCCN=C(N)N)C(=O)N3CCC(C)CC3C(=O)O)cc(OC)c2c1 (stereo unspecified)		340 nM
CCSCCN(CC(=O)O)C(=O)C(CCCN=C(N)N)NS(=O)(=O)c1ccc2cc(OC)c(OC)cc2c1 (stereo unspecified)		5000 nM
COCCCN(CC(=O)O)C(=O)C(CCCN=C(N)N)NS(=O)(=O)c1ccc2cc(OC)c(OC)cc2c1 (stereo unspecified)		5000 nM
CCCN(CC(=O)O)C(=O)C(CCCN=C(N)N)NS(=O)(=O)c1ccc2cc(OC)c(OC)cc2c1 (stereo unspecified)		8000 nM
COc1cc2ccc(S(=O)(=O)NC(CCCN=C(N)N)C(=O)N(C)CC(=O)O)cc2cc1OC (stereo unspecified)		> 100000 nM
CC1CCN(C(=O)C(CCCN=C(N)N)NS(=O)(=O)c2ccc3c(c2)Sc2ccccc2O3)C(C(=O)O)C1 (stereo unspecified)	250 nM	
CCCCN(CC(=O)O)C(=O)C(CCCN=C(N)N)NS(=O)(=O)c1ccc2ccccc2c1 (stereo unspecified)		> 100000 nM
CCCCCCCCN(CC(=O)O)C(=O)C(CCCN=C(N)N)NS(=O)(=O)c1ccc2cc(OC)c(OC)cc2c1 (stereo unspecified)		> 100000 nM
N=C(N)NCCCC(NS(=O)(=O)c1cccc2ccccc12)C(=O)N(CC(=O)O)CC1CCCO1 (stereo unspecified)		30000 nM
N=C(N)NCCCC(NS(=O)(=O)c1cccc2c1CCCC2)C(=O)N(CC(=O)O)CC1CCCO1 (stereo unspecified)	6500 nM	
CCCCN(CC(=O)O)C(=O)C(CCCN=C(N)N)NS(=O)(=O)c1cccc2c1CCCC2 (stereo unspecified)	20000 nM	
CCCCN(CC(=O)O)C(=O)C(CCCN=C(N)N)NS(=O)(=O)c1ccc2cc(OC)c(OC)cc2c1 (stereo unspecified)		300 nM
Cc1ccc2ccc(S(=O)(=O)NC(CCCN=C(N)N)C(=O)N(CC(=O)O)CC3CCCO3)cc2c1 (stereo unspecified)		200 nM
COc1cc2ccc(S(=O)(=O)NC(CCCN=C(N)N)C(=O)N3CCC(c4ccccc4)CC3C(=O)O)cc2cc1OC (stereo unspecified)	12000 nM	
CCC1CCN(C(=O)C(CCCN=C(N)N)NS(=O)(=O)c2ccc3ccc(OC)cc3c2)C(C(=O)O)C1 (stereo unspecified)		100 nM
COCCN(CC(=O)O)C(=O)C(CCCN=C(N)N)NS(=O)(=O)c1cccc2c1CCCC2 (stereo unspecified)	10000 nM	
COCCN(CC(=O)O)C(=O)C(CCCN=C(N)N)NS(=O)(=O)c1cccc2c(N(C)C)cccc12 (stereo unspecified)		5000 nM
COc1cc2ccc(S(=O)(=O)NC(CCCN=C(N)N)C(=O)N(CC(=O)O)C3CCCCC3)cc2cc1OC (stereo unspecified)		5000 nM
CCCCN(CC(=O)O)C(=O)C(CCCN=C(N)N)NS(=O)(=O)c1ccc2cc(OC)ccc2c1 (stereo unspecified)		500 nM

SMILES	IC50 (Prothrombin [1])	IC50 (Prothrombin [2])
CCCCCN(CC(=O)O)C(=O)C(CCCN=C(N)N)NS(=O)(=O)c1cccc2c1CCCC2 (stereo unspecified)	100000 nM	
CCCCCN(CC(=O)O)C(=O)C(CCCN=C(N)N)NS(=O)(=O)c1ccc2cc(OC)c(OC)cc2c1 (stereo unspecified)		1000 nM
CC1CCN(C(=O)C(CCCN=C(N)N)NS(=O)(=O)c2ccc3c(c2)-c2ccccc2C3)C(C(=O)O)C1 (stereo unspecified)		100 nM
COCCN(CC(=O)O)C(=O)C(CCCN=C(N)N)NS(=O)(=O)c1ccc2cc3c(cc2c1)OCCO3 (stereo unspecified)	57000 nM	
CN(C)c1cccc2c(S(=O)(=O)NC(CCCN=C(N)N)C(=O)N(CC(=O)O)CC3CCCO3)cccc12 (stereo unspecified)		2000 nM
COCCN(CC(=O)O)C(=O)C(CCCN=C(N)N)NS(=O)(=O)c1ccc2c(c1)-c1ccccc1C2 (stereo unspecified)	400 nM	
COCCN(C(=O)C(CCCN=C(N)N)NS(=O)(=O)c1ccc2cc(OC)c(OC)cc2c1)C(C)C(=O)O (stereo unspecified)		5000 nM
COc1cc2ccc(S(=O)(=O)NC(CCCN=C(N)N)C(=O)N(CC(=O)O)CC(C)C)cc2cc1OC (stereo unspecified)		2000 nM
COc1cc2ccc(S(=O)(=O)NC(CCCN=C(N)N)C(=O)N3CCCC(C(=O)O)C3)cc2cc1OC (stereo unspecified)		40000 nM
Cc1ccc2ccc(S(=O)(=O)NC(CCCN=C(N)N)C(=O)N3CCC(C)CC3C(=O)O)cc2c1 (stereo unspecified)		150 nM
CCCCN(CC(=O)O)C(=O)C(CCCN=C(N)N)NS(=O)(=O)c1ccc2oc3ccccc3c2c1 (stereo unspecified)	300 nM	
COCCN(CC(=O)O)C(=O)C(CCCN=C(N)N)NS(=O)(=O)c1ccc2sc3ccccc3c2c1 (stereo unspecified)	450 nM	
COc1cc2ccc(S(=O)(=O)NC(CCCN=C(N)N)C(=O)N(CC(=O)O)CC3CCCCC3)cc2cc1OC (stereo unspecified)		15000 nM
CCC1CCN(C(=O)C(CCCN=C(N)N)NS(=O)(=O)c2ccc3cc(OC)c(OC)cc3c2)C(C(=O)O)C1 (stereo unspecified)	250 nM	
CC1CCN(C(=O)C(CCCN=C(N)N)NS(=O)(=O)c2cccc3c(N(C)C)cccc23)C(C(=O)O)C1 (stereo unspecified)		4000 nM
COc1cc2ccc(S(=O)(=O)NC(CCCN=C(N)N)C(=O)N3CCc4ccccc4C3C(=O)O)cc2cc1OC (stereo unspecified)	700 nM	
CC1CCN(C(=O)C(CCCN=C(N)N)NS(=O)(=O)c2cccc3c2CCCC3)C(C(=O)O)C1 (stereo unspecified)		600 nM
COCCN(CC(=O)O)C(=O)C(CCCN=C(N)N)NS(=O)(=O)c1ccc2ccc(OC)cc2c1 (stereo unspecified)		500 nM
